Test results from ChEMBL document CHEMBL4680175, “Sulfonamide-based ring-fused analogues for CAN508 as novel carbonic anhydrase inhibitors endowed with antitumor activity: Design, synthesis, and in vitro biological evaluation” (Eur J Med Chem, 2020).

Key:
Carbonic anhydrase 2 = Carbonic anhydrase 2 (Homo sapiens, UniProt P00918); experiment: Inhibition of recombinant human carbonic anhydrase 2 preincubated with enzyme for 15 mins by phenol red dye based stopped flow CO2 hydrase assay
Carbonic anhydrase 9 = Carbonic anhydrase 9 (Homo sapiens, UniProt Q16790); experiment: Inhibition of recombinant human carbonic anhydrase 9 preincubated with enzyme for 15 mins by phenol red dye based stopped flow CO2 hydrase assay
Carbonic anhydrase 12 = Carbonic anhydrase 12 (Homo sapiens, UniProt O43570); experiment: Inhibition of recombinant human carbonic anhydrase 12 preincubated with enzyme for 15 mins by phenol red dye based stopped flow CO2 hydrase assay
CDK9/cyclin T1 = CDK9/cyclin T1 (Homo sapiens, UniProt P50750); experiment: Inhibition of human full-length N-terminal GST/His6-tagged CDK9 (1 to 372 residues)/His6-tagged Cyclin-T1 (1 to 726 residues) expressed in sf9 cells using (YSPTSPS)2KK peptide as substrate in presence of [gamma33P]ATP
[1] = target: Cyclin-dependent kinase 2/cyclin E1 (Homo sapiens, UniProt P24941); experiment: Inhibition of CDK2/cyclin E (unknown origin) expressed in baculovirus infected Sf21 insect cells using histone H1 as substrate in presence of [gamma33P]ATP
Carbonic anhydrase 1 = Carbonic anhydrase 1 (Homo sapiens, UniProt P00915); experiment: Inhibition of recombinant human carbonic anhydrase 1 preincubated with enzyme for 15 mins by phenol red dye based stopped flow CO2 hydrase assay
Sequence of Carbonic anhydrase 1 (P00915 whole entry): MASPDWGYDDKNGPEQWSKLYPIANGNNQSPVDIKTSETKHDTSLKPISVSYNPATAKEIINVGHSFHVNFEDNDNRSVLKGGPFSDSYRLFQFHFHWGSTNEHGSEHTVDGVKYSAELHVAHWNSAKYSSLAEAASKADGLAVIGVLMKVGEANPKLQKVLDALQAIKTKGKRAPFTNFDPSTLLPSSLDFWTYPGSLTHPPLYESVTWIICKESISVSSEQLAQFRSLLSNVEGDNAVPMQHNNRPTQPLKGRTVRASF

Sequence of Carbonic anhydrase 12 (O43570 whole entry, the tested form may be a part): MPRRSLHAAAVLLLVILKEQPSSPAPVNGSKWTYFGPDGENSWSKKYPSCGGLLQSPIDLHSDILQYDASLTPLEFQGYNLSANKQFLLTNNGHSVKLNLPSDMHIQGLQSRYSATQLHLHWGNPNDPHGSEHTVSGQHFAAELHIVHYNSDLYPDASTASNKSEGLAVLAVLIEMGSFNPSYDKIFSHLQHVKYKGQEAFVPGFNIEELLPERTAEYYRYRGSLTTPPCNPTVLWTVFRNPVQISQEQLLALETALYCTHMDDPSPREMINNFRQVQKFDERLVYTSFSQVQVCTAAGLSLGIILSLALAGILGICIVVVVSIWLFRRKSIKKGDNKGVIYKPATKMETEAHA
Sequence of CDK9/cyclin T1 (O60563 whole entry, the tested form may be a part): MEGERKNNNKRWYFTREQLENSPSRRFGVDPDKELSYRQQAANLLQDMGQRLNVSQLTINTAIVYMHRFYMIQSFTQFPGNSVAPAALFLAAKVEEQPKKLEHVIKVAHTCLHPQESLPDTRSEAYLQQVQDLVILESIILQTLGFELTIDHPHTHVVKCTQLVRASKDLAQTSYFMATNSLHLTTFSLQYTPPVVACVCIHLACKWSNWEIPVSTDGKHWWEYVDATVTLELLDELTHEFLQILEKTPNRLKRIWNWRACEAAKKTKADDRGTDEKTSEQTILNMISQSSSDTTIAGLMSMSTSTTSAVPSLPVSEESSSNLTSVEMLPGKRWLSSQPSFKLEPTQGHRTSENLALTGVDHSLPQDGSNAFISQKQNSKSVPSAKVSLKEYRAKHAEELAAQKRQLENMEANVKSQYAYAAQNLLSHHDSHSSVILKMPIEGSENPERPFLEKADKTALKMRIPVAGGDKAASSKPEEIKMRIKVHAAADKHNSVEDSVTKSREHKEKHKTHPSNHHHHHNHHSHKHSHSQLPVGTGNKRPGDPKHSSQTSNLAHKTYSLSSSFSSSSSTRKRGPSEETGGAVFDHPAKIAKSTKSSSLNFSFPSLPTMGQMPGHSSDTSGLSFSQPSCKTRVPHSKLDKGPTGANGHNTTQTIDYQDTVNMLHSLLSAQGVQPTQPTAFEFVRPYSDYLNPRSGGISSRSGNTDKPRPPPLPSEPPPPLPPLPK
Sequence of CDK9/cyclin T1 (P50750 whole entry, the tested form may be a part): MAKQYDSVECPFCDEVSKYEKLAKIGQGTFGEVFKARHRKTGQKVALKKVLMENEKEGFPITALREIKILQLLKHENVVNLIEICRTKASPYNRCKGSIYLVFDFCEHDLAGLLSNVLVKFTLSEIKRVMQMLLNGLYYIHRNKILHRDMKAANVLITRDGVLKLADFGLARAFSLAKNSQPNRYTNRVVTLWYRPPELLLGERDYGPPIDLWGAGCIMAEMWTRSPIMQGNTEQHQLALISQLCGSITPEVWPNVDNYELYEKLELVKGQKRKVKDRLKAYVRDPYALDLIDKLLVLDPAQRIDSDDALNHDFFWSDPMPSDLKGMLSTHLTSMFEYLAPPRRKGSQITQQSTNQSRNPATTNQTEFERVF

Row | Ki (Carbonic anhydrase 2) | Ki (Carbonic anhydrase 9) | Ki (Carbonic anhydrase 12) | IC50 (CDK9/cyclin T1) | IC50 [1] | Ki (Carbonic anhydrase 1) | Compound
1 | 0.0276 µM | 0.0318 µM | 0.0254 µM | > 12.5 µM | > 12.5 µM | 0.458 µM | Nc1nn2c(-c3ccccc3)ccnc2c1/N=N/c1ccc(S(N)(=O)=O)cc1
2 | 0.0062 µM | 0.0457 µM | 0.0607 µM | > 12.5 µM | > 12.5 µM | 1.33 µM | Cc1ccc(-c2ccnc3c(/N=N/c4ccc(S(N)(=O)=O)cc4)c(N)nn23)cc1
3 | 0.0234 µM | 0.0563 µM | 0.0443 µM | > 12.5 µM | 6.4 µM | 0.544 µM | Nc1nn2c(-c3ccc(Cl)cc3)ccnc2c1/N=N/c1ccc(S(N)(=O)=O)cc1
